Experimental data: US6262064A, “Octahydrobenzo[f]quinoline-based receptor agonists and antagonists” (priority 1999, dated 2001)
Where two headings read alike, the source gives them in different places.

Columns and labels:
[1] = target: alpha2-adrenergic receptor; assay: Alpha2-adrenergic (non-selective) binding assay ([3H]RX 781094); parameters: species or system rat; conditions: for Ki: Table III, rat cortical membranes, read-out: α2 receptor binding affinity Ki; for α2 receptor binding affinity: in words
[2] = target: alpha1-adrenergic receptor; conditions: for Ki: read-out: α1 receptor binding affinity Ki, Table III, rat forebrain membranes
Experimental: In these assays, the binding reaction was initiated by the addition of varying concentrations of the potential binding composition and a radioligand to an appropriate tissue. The assay was then incubated to allow binding. Binding was then terminated by dilution of the assay with a cold buffer, followed by rapid vacuum filtration onto Whatman GI/C filters that were presoaked in 0.1% polyethylene imine for at least 3 hours. Radioactivity trapped onto the filters was determined and compared to control values in order to ascertain any interactions of test compounds with the binding sites. Binding affinity analyses were performed by Novascreen, Division of the Adheron Corporation, Hanover, Md.
Incubation was conducted in 50 mM TRIS-HCl (pH 7.7) at 25° C. for 60 minutes. […] The final ligand concentration was 0.5 nm.

[3] = test system: male Sprague-Dawley albino rats; assay: Stereotypy evaluation for dopaminergic activity; assay type: in vivo; conditions: IP
Experimental: Young, adult, male Sprague-Dawley (Charles River) albino rats (200-250 g) served as subjects in this experiment. The rats were injected IP with each dose of (±)-trans-9 or (±)-cis-9. Six rats were tested at each dose. Experimental sessions were 60 minutes in duration. The tests were performed and rated in accordance with the method described in Campbell et al., Psychopharmacology, 88:158 (1986). Each rat was rated with a score of 0 to 3, where 0 represents no sterotypy.

D2 receptor [4] = target: T1, D2 receptor (Rattus norvegicus, UniProt P61169); assay: D2 receptor agonist evaluation (membrane binding with and without Gpp(NH)p)
T1 construct: expressed in transfected cells
Experimental: (§1) To determine the D2, D3 or D4 receptor selectivity, competition binding assays were performed using membranes from fibroblast cell lines transfected with D2444 (rat), D3 (human) or D4 (rat) receptors. All cell lines were maintained in Dulbecco's modified Eagle's media (DMEM) supplemented with 10 % fetal bovine serum at 37° C. with 5% CO2. Transfected cells were maintained in DMEM containing 300 μg/mL of the antibiotic G418 (Gibco).
To determine whether or not compounds of this invention were D2 receptor agonists, a membrane binding assay, utilizing the D2 cell line described in Example 26, was performed in the presence and absence of the non-hydrolyzable guanine nucleotide (GTP analogue) Gpp(NH)p.

D2 dopamine receptor = target: T2, D2 dopamine receptor (Rattus norvegicus, UniProt P61169); assay: Dopamine D2 binding assay ([3H]Sulpiride); conditions: for dopamine receptor binding affinity / selectivity for the D2 over the D1 dopamine receptor: in words
T2 construct: rat striatal membranes; from tissue; host or cells: rat striatum membranes
Experimental: The final ligand concentration was 0.5 nM.

D4 receptor = target: T3, D4 receptor (Homo sapiens, UniProt P21917, DEL265-296); assay: D2:D4 comparative binding assay, D4 (COS-7 cells)
T3 construct: expressed in transfected cells; host or cells: COS-7 cells
Experimental: (§2) To evaluate D2 versus D4 receptor selectivity, comparative binding assays were performed to compare the binding affinities of compositions of this invention for cloned D2 and D4 receptors.
(§3) The D2 assay was prepared from pig anterior pituitary tissue as described in Seeman et al., Molecular Pharmacology, 28:391 (1985). The D4 assay contained membranes prepared from COS-7 cells transfected with a 3.9 kb cDNA-gene fusion construct as described in H. H. M. Vantol, Nature, 350:610 (1991).
(§4) Binding assays were done using the methods described in by Seeman and Vantol. [^3 H]-spiperone (New England Nuclear, Boston, Mass.). The compositions were tested varying concentrations.
(§5) After addition of all components, the samples were incubated for 15 minutes at 37° C., terminated with 50 mM Tris-HCl (pH 7.4 at 20° C.) and collected on glass-fiber filters on a Brandel cell harvester. Radioactivity retained on the filters was counted on a Beckman LS 1701 scintillation counter and data were analyzed by non-linear least squares regression methods.

[5] = test system: non-habituated male Swiss-Webster mice; assay: Locomotor dose-effect test; assay type: in vivo
Experimental: Compounds of this invention were tested to evaluate any depressant effect upon locomotor activity on non-habituated and cocaine-influenced mice. Locomotor activity was measured in photocell cages. A panel of infrared beams was located in the horizontal direction along all 4 sides of each activity cage. Horizontal photocell beam interruptions were recorded by a computer in 10 minute intervals.
Non-habituated male Swiss-Webster served as subjects in this experiment. The mice were injected via the intraperitoneal (IP) route with a methycellulose vehicle or a test compound, comprising trans-9 or cis-9, and placed singly in cages for 20 minutes. After this 20 minute period, mice were injected with saline IP, placed in individual photocell cages and testing for effects upon locomotor activity was begun. Eight mice were tested at each dose level. Experimental sessions were 60 minutes in duration with horizontal locomotor activity recorded in 10 minute intervals. Within each 10 minute interval, the data from all subjects are averaged.
The results of these tests were provided in FIGS. 1a, 1b, 2a and 2b, as well as in Table XI. […] Data were analyzed by a one-way ANOVA computed across doses using a long10 transformation of the horizontal activity counts. Comparisons between vehicle and each dose of the compounds tested were made by a priori contrasts. Doses of the compounds tested, which produced a statistically significant (p<0.05) decrease in locomotor activity relative to vehicle control, are denoted with an asterisk. […] The horizontal activity counts were regressed against the log10 dose of the test compound.

D2 receptor [6] = target: T4, D2 receptor (Sus scrofa, UniProt F1SM69); assay: D2:D4 comparative binding assay, D2 (pig anterior pituitary)
T4 construct: pig anterior pituitary tissue; from tissue; host or cells: pig anterior pituitary
Experimental: as §2, §3, §4, §5

D4 (rat) receptor = target: T5, D4 (rat) receptor (Rattus norvegicus, UniProt P30729); assay: D2:D3:D4 competition binding assay, D4 ([3H]-spiperone); conditions: in words, Example 26
T5 construct: expressed in transfected cells
T5 sequence (P30729 1-387): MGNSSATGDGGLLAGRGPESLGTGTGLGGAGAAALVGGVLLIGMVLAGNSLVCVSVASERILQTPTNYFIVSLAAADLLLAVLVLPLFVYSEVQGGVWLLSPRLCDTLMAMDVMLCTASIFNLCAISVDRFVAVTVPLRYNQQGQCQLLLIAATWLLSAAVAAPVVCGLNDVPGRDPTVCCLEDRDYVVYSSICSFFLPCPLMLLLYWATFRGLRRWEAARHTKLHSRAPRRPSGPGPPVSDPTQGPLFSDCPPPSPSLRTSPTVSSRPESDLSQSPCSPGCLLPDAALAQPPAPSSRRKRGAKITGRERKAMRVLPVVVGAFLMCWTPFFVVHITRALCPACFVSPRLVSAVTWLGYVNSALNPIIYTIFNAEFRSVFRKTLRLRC
Experimental: as §1
Nuclei were removed by centrifugation for five minutes at 600 g at 4° C., membranes were pelleted for 25 minutes at 50,000 g. Membrane protein was resuspended in homogenization buffer (0.32M sucrose, 0.0025M Tris, pH 6.9 at 20° C.) and incubated at 37° C. for 15 minutes. Membrane protein was pelleted, resuspended in water and stored at -70° C.
The compositions were tested in varying concentrations between 1 nM and 100 μM. Non-specific binding was determined using 1 μM eticlopride.
After addition of all components, the samples were incubated for 15 minutes at 37° C., terminated with 50 mM Tris-HCl (pH 7.4 at 4° C.) and collected on glass-fiber filters on a Brandel cell harvester. […] Each composition was evaluated in duplicate experiments.

5HT1 serotonin receptor = assay: Serotonin (5HT1) binding assay
Experimental: In these assays, the binding reaction was initiated by the addition of varying concentrations of the potential binding composition and a radioligand to an appropriate tissue. The assay was then incubated to allow binding. Binding was then terminated by dilution of the assay with a cold buffer, followed by rapid vacuum filtration onto Whatman GI/C filters that were presoaked in 0.1% polyethylene imine for at least 3 hours. Radioactivity trapped onto the filters was determined and compared to control values in order to ascertain any interactions of test compounds with the binding sites.
Incubation was conducted in 50 mM TRIS-HCl (pH 7.4) at 45 minutes for 37° C. The radioligand used was [^3 H]Hydroxytryptamine binoxalate (15-30 Ci/mmol). The final ligand concentration was 3.0 nM.

D1 dopamine receptor = target: T6, D1 dopamine receptor (Rattus norvegicus, UniProt P18901); assay: Dopamine D1 binding assay ([3H]SCH 23390); conditions: Table III; rat striatal membranes; read-out: D1 receptor binding affinity Ki
T6 construct: rat striatal membranes; from tissue; host or cells: rat striatum membranes
Experimental: The final radioligand concentration was 0.5 nM.

5HT2 serotonin receptor = target: T7, 5HT2 serotonin receptor (Rattus norvegicus, UniProt P14842); assay: Serotonin (5HT2) binding assay ([3H]Ketanserin); conditions: 5-HT2 receptor binding affinity Ki
T7 construct: rat cortical membranes; from tissue; host or cells: rat cortex membranes
Experimental: The final ligand concentration was 1.0 nM.

5HT1A serotonin receptor = target: T8, 5HT1A serotonin receptor (Bos taurus, UniProt F6Q2H9); assay: Serotonin (5HT1A) binding assay ([3H]-8-OH-DPAT); parameters: species or system bovine
T8 construct: bovine hippocampus; from tissue; host or cells: bovine hippocampus
T8 sequence (F6Q2H9 1-422): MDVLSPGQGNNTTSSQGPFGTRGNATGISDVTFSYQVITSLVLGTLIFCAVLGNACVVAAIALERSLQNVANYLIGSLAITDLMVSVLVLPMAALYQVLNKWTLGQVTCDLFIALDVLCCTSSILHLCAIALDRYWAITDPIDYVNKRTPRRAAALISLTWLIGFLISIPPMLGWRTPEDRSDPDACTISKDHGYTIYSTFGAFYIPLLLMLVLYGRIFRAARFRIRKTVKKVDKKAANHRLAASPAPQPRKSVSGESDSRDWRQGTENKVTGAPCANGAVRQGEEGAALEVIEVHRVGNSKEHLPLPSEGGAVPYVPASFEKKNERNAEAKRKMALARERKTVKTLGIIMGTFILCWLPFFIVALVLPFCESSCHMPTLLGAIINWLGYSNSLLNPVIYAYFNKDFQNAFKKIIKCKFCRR

T2 sequence (P61169 whole entry): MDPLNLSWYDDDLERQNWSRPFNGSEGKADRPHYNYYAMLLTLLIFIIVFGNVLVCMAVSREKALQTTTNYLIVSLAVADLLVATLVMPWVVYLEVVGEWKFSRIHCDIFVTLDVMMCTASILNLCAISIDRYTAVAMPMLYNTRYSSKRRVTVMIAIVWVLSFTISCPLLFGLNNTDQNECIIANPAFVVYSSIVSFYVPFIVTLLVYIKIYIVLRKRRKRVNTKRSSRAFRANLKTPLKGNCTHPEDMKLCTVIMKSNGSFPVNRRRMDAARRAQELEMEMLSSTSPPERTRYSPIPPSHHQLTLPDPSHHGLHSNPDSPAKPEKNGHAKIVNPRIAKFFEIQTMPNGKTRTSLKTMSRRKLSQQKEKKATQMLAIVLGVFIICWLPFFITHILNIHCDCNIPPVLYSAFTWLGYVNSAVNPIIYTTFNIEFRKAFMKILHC
T1 sequence (P61169 whole entry): as above
T3 sequence (P21917 other isoform, or with tags, fused parts or gaps DEL265-296): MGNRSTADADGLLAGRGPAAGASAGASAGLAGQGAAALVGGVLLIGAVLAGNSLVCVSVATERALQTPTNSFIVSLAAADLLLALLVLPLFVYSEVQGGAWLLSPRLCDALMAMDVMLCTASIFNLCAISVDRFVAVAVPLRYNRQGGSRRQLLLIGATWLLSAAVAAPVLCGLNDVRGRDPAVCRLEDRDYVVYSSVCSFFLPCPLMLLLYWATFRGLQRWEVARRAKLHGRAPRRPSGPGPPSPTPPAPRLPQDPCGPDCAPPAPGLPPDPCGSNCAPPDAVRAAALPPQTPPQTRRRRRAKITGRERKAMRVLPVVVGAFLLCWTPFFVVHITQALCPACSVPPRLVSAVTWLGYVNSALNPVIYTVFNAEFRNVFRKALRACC
T6 sequence (P18901 whole entry): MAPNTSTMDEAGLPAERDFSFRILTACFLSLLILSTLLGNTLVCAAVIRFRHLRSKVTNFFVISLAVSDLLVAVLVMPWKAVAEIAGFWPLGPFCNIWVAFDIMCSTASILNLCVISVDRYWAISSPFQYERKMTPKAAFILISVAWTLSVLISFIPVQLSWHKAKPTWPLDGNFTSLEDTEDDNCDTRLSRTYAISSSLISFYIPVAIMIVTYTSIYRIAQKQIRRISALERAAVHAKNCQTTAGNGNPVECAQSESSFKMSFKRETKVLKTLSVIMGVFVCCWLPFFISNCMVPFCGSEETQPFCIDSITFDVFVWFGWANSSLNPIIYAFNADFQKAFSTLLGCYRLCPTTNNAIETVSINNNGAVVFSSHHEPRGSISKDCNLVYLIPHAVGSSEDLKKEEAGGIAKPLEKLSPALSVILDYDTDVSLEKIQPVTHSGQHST
T7 sequence (P14842 whole entry): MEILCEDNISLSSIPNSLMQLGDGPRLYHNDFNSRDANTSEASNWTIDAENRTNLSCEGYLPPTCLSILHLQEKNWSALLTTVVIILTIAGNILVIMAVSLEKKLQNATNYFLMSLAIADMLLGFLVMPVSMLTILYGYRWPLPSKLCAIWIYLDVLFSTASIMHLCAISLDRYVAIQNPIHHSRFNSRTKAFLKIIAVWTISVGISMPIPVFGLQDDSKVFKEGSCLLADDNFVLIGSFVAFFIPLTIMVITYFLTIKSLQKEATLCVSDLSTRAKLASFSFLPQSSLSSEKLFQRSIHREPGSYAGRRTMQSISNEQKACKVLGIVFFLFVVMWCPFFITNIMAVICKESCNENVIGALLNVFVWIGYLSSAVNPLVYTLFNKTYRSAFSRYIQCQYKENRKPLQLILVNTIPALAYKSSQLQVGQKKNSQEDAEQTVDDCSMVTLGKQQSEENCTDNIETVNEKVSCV
T4 sequence (F1SM69 1-443): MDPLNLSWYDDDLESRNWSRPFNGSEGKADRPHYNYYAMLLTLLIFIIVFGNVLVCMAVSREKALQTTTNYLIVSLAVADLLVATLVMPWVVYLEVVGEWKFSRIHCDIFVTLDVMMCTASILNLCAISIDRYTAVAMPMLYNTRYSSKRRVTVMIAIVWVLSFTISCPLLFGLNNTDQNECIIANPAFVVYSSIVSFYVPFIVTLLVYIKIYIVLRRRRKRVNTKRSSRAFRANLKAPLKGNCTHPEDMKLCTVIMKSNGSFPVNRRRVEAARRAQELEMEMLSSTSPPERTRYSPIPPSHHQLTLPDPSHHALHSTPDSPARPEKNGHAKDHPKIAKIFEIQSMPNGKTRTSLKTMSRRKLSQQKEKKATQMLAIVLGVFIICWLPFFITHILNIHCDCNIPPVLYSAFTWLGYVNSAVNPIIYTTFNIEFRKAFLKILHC

`Oc1ccc2c(c1O)CC[C@@H]1[C@H]2CCCN1CCc1ccccc1` (relative stereo) [cis-9] was tested, and the Ki [1] was 27 nM, the “α2 receptor binding affinity” value [1] was “high binding affinities for the α2 receptor” and the Ki [2] was 190 nM. It also gave a stereotypy score ([3]; 0.0001 mg/kg) of 1.0 ± 0.4, a stereotypy score ([3]; 0.001 mg/kg) of 0.7 ± 0.3 and a stereotypy score ([3]; 0.003 mg/kg) of 0.5 ± 0.2. For the same compound, the stereotypy score ([3]; 0.01 mg/kg) was 0.0, the stereotypy score ([3]; 0.03 mg/kg) was 0.0 and the stereotypy score ([3]; 0.1 mg/kg) was 0.0. For the same compound, the stereotypy score ([3]; 0.3 mg/kg) was 0.0, the stereotypy score ([3]; 1.0 mg/kg) was 0.0 and the stereotypy score ([3]; 3.0 mg/kg) was 0.0. The stereotypy score ([3]; 10.0 mg/kg) was 0.0, the “induction of stereotypy, dopamine agonism” value ([3]; in words) was “did not induce stereotypy and therefore is not a dopamine agonist” and the “Ratio of +:- Gpp(NH)p” value (D2 receptor [4]; Table XV) was 1.84. The Ki (D2 receptor [4]; Table XV, with Gpp(NH)p, read-out: D2 receptor binding Ki with Gpp(NH)p) was 872 ± 610 nM, the Ki (D2 receptor [4]; Table XV, without Gpp(NH)p, read-out: D2 receptor binding Ki without Gpp(NH)p) was 473 ± 313 nM and the D2 agonist/antagonist assessment (D2 receptor [4]; in words) was “appear to be an antagonist”. For the same compound, the “effect of GTP on D2 receptor binding” value (D2 receptor [4]; in words) was “the addition of GTP did not significantly affect receptor binding affinity”, the Ki (D2 dopamine receptor) was 22 nM and the “dopamine receptor binding affinity” value (D2 dopamine receptor) was “good dopamine receptor binding affinities”. The “selectivity for the D2 over the D1 dopamine receptor” value (D2 dopamine receptor) was “highly selective for the D2 dopamine receptor over the D1 dopamine receptor”, the Ki (D4 receptor) was 8.9 nM and the “selectivity for the D4 receptor” value (D4 receptor; in words, Example 27) was “selective for the D4 receptor over the D2 or D3 receptors”. The deaths ([5]; IP, 10 mg/kg) was “Two of eight mice died”, the “decrease in locomotor activity, overall assessment” value ([5]; IP, in words) was “much weaker than expected when compared to its dopamine D2 receptor affinity” and the “suppression of locomotor activity” value ([5]; IP, in words) was “dose-related suppression of locomotor activity of 10 mg/kg”. The ED50 ([5]; Mus musculus, read-out: ED50 (dose which produced 50% maximal depressant activity), IP, horizontal locomotor activity) was 2.1 mg/kg, the Ki (D2 receptor [6]) was 122 nM and the “selectivity for the D4 receptor” value (D4 (rat) receptor) was “highly selective for the D4 receptor over the D2 or D3 receptors”.
`Oc1cccc2c1CC[C@@H]1[C@@H]2CCCN1CCc1ccccc1` (single isomer, unassigned) [trans-(-)-25, trans-(-)-7-hydroxy-4-phenethyl-1,2,3,4a,5,6,10b-octahydrobenzo[f]quinoline] was tested, and the Ki [1] was 2.1 nM, the “α2 receptor binding affinity” value [1] was “high binding affinities for the α2 receptor” and the “α1 receptor binding affinity” value ([2]; in words) was “high binding affinities for the α1 receptor”. For the same compound, the Ki [2] was 4.8 nM, the “5HT1 serotonin receptor binding affinity” value (5HT1 serotonin receptor; in words) was “high binding affinity for the 5HT1 serotonin receptor” and the Ki (5HT1 serotonin receptor; read-out: 5-HT1 receptor binding affinity Ki, Table III, rat cortical membranes) was 240 nM. The Ki (D1 dopamine receptor) was 3.6 µM, the Ki (D2 dopamine receptor) was 0.9 nM and the “dopamine receptor binding affinity” value (D2 dopamine receptor) was “good dopamine receptor binding affinities”. The “selectivity for the D2 over the D1 dopamine receptor” value (D2 dopamine receptor) was “highly selective for the D2 dopamine receptor over the D1 dopamine receptor”, the Ki (5HT2 serotonin receptor) was 410 nM and the Ki (5HT1A serotonin receptor; 5-HT1A receptor binding affinity Ki, Table III, bovine hippocampus) was 11 nM. For the same compound, the “5HT1A serotonin receptor binding affinity” value (5HT1A serotonin receptor; in words) was “high binding affinities for the 5HT1A serotonin receptor”.
